Laboratory results from US10604487B2, “Pyridinol derivative or pharmaceutically acceptable salt thereof, and pharmaceutical composition containing same as active ingredient” (Research Cooperation Foundation of Yeungnam University, priority 2016, dated 2020).
Read-outs that look alike come from different tables or passages of the source.

Legend:
[1] = test system: TNF-α-induced adhesion of monocytes to intestinal epithelial cells; assay: Inhibitory activity against TNF-α-induced adhesion of monocytes (U937) to intestinal epithelial cells (HT-29); format: cell-based, human; details: for inhibition at 1 µM / IC50: Homo sapiens; for IC50: TNF-α-induced, read-out: IC50 (adhesion inhibition)
Summary of the method: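 HT-29 monolayers pretreated 1 h with compound in 1% FBS medium, then exposed 3 h at 37 °C to BCECF-loaded U937 cells plus 10 ng/mL TNF-α. Non-adherent cells washed off; bound cells quantified by fluorescence after Triton X-100 lysis.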

TNBS-induced colitis = assay: In vivo efficacy of oral administration in TNBS-induced inflammatory bowel disease model; set-up: species or system Sprague Dawley rats; details: rat; for Body weight recovery rate (%) / Bowel weight recovery rate (%): oral, 5 days
Method: 7 to 8-week-old Sprague Dawley rats were purchased from Orient Bio Korea, and after stabilization with typical solid feed for 3 days, were used as animals for the experiment. The animals were freely supplied with feed and water during the experiment, and a cage was maintained at a temperature of 25±1° C. and a relative humidity of 50±10%. Lighting was adjusted to a 12-hour light-dark cycle using an automatic lightening system. In regard to experimental groups, there were 5 groups each consisting of 6 rats having an average weight of 180±10 g (a control group, a group administered TNBS only, a group administered TNBS+300 mg/kg of sulfasalazine, a group administered TNBS+10 mg/kg of GLPG, and a group administered TNBS+1 mg/kg of test drug), which were divided according to a randomized block design.
After rats that had been fasting for 24 hours were anesthetized with diethyl ether, a 1 mL syringe connected with a polyethylene catheter was used to slowly inject 0.8 mL of 5% TNBS diluted with 50v/v % ethanol into the lumen of a colon, and then the rats turned upside down and kept upright for 60 seconds to prevent the leakage of 5% TNBS from the anus. In the control group, only a vehicle [50 v/v % ethanol] was injected in the same manner as in the other groups (Thapa et al., 2008).
To examine a drug effect, for 5 days from the day following the TNBS treatment, a drug was administered at a predetermined time every day.
A change in the body weights of the rats was observed using a digital mass meter from the fasting stage to the end of the TNBS administration and drug administration processes.
The colon of each rat was extracted and tissue 5 to 6 cm from the anus was cut into 1-cm pieces, and then the weight of the tissue was measured.

[2] = Cytotoxicity test (MTT), HT-29; format: cell-based; details: human, HT-29, 48 h; for viability at 48 h, 0.01 µM / viability at 48 h, 0.1 µM / viability at 48 h, 1 µM / viability at 48 h, 10 µM / viability at 48 h, 100 µM: HT-29 cells (colorectal cancer cell line), read-out: Cell viability (% of control); for IC50 at 48 h: HT-29 cells, read-out: IC50 (μM), cytotoxicity
Summary of the method: (§1)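 Cells seeded at 1×10⁵ cells/cm² and exposed to graded compound concentrations for 48 h at 37 °C in RPMI 1640 with 1% FBS. MTT (5 mg/mL) added for 4 h; formazan dissolved in DMSO and absorbance read at 540 nm.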

[3] = Cytotoxicity test (MTT), U937; format: cell-based; details: human, U937, 48 h; for viability at 48 h, 0.01 µM / viability at 48 h, 0.1 µM / viability at 48 h, 1 µM / viability at 48 h, 10 µM / viability at 48 h, 100 µM: U937 cells (monocytic blood cancer-derived cell line), read-out: Cell viability (% of control); for IC50 at 48 h: U937 cells
Summary of the method: as §1

[4] = 1 μM, Table 8, read-out: 1 μM concentration inhibitory activity
[5] = 1 μM test drug, HT-29/U937 adhesion, 10 ng/mL TNF-α
[6] = 1 μM test drug, HT-29/U937 adhesion, 10 ng/mL TNF-α, read-out: Inhibitory activity (%)

SMILES | Body weight recovery rate (%) (TNBS-induced colitis; 1 mg/kg) | Bowel weight recovery rate (%) (TNBS-induced colitis; 1 mg/kg) | viability at 48 h, 0.01 µM [2] [%] | viability at 48 h, 0.1 µM [2] [%] | viability at 48 h, 1 µM [2] [%] | viability at 48 h, 10 µM [2] [%] | viability at 48 h, 100 µM [2] [%] | IC50 at 48 h [2] [µM] | viability at 48 h, 0.01 µM [3] [%] | viability at 48 h, 0.1 µM [3] [%] | viability at 48 h, 1 µM [3] [%] | viability at 48 h, 10 µM [3] [%] | viability at 48 h, 100 µM [3] [%] | IC50 at 48 h [3] [µM] | further results
Cc1nc(NS(=O)(=O)c2ccc(C(F)(F)F)cc2)c(C)c(C)c1O [Compound 22-3, N-(5-hydroxy-3,4,6-trimethylpyridin-2-yl)-4-(trifluoromethyl)benzenesulfonamide] | 25.0 | 50.3 | 92.5 ± 1.5 | 95 ± 0.9 | 89.3 ± 4.7 | 91.8 ± 1.8 | 72.6 ± 3.2 | > 100 | 96.9 ± 1.5 | 93 ± 1.5 | 87.5 ± 2.2 | 75.5 ± 1.9 | 53.3 ± 1.5 | > 100 | inhibition at 1 µM [1, 4]: 87.3%; IC50 ([1]; HT-29/U937 adhesion): 0.32 µM
Cc1nc(NC(=S)Nc2cccc(C(F)(F)F)c2)c(C)c(C)c1O [Compound 18-9, 1-(5-Hydroxy-3,4,6-trimethylpyridin-2-yl)-3-(3-(trifluoromethyl)phenyl)thiourea] | 74.9 | 87.2 | – | – | – | – | – | – | – | – | – | – | – | – | Inhibitory activity (%) [1, 5]: 93.0%
O=C(O)c1cc(/N=N/c2ccc(S(=O)(=O)Nc3ccccn3)cc2)ccc1O [Sulfasalazine, reference compound] | – | – | – | – | – | – | – | – | – | – | – | – | – | – | Morphology observation of colon (visual symptoms, adhesion between organs, intestinal hyperemia) (TNBS-induced colitis; 300 mg/kg, after 5-day administration): considerably inhibited; Body weight recovery rate (%) (TNBS-induced colitis; 300 mg/kg): 50.5%; Bowel weight recovery rate (%) (TNBS-induced colitis; 300 mg/kg): 69.6%
Cc1nc(NC(=S)Nc2ccc(Cl)c(Cl)c2)c(C)c(C)c1O [Compound 18-8, 1-(3,4-dichlorophenyl)-3-(5-hydroxy-3,4,6-trimethylpyridin-2-yl)thiourea] | 72.4 | 84.6 | – | – | – | – | – | – | – | – | – | – | – | – | Inhibitory activity (%) [1, 5]: 87.2%
Cc1nc(NC(=S)NC(C)C)c(C)c(C)c1O [Compound 18-2, 1-(5-hydroxy-3,4,6-trimethylpyridin-2-yl)-3-isopropylthiourea] | 72.0 | 81.6 | 87.6 ± 4.8 | 87.3 ± 2.1 | 88.4 ± 4.2 | 87.6 ± 5.3 | 88.6 ± 1.3 | > 100 | 97 ± 3.5 | 99.4 ± 3.9 | 99.1 ± 1.4 | 90.8 ± 2.2 | 63.6 ± 0.8 | > 100 | inhibition at 1 µM [1, 6]: ≥ 50%
Cc1nc(NC(=S)NC(=O)c2ccccc2)c(C)c(C)c1O [Compound 18-13, N-((5-Hydroxy-3,4,6-trimethylpyridin-2-yl)carbamothioyl)benzamide] | 93.8 | 94.9 | 78.8 ± 3.3 | 75.4 ± 1.3 | 75.4 ± 4.1 | 57.9 ± 5.8 | 36.4 ± 6.1 | 19.1 | 99.9 ± 1.3 | 96.8 ± 1.8 | 91.7 ± 3.6 | 79 ± 0.8 | 60.6 ± 0.5 | > 100 | inhibition at 1 µM [1, 6]: ≥ 50%
Cc1nc(NC(=O)Nc2ccccc2)c(C)c(C)c1O [Compound 16-2, 1-(5-hydroxy-3,4,6-trimethylpyridin-2-yl)-3-phenylurea] | 69.0 | 81.6 | 103 ± 1.9 | 103 ± 1.6 | 103 ± 3.5 | 93.4 ± 7.2 | 65.2 ± 6.6 | > 100 | 89.9 ± 2.6 | 88.9 ± 1.9 | 87.1 ± 2 | 81.7 ± 2 | 78 ± 0.6 | > 100 | inhibition at 1 µM [1, 4]: 76.3%; IC50 ([1]; HT-29/U937 adhesion): 0.41 µM
